Measured values published in US9526785B2, “Pharmaceuticals for oral delivery” (Enteris BioPharma, Inc., priority 2013, dated 2016).
Where two headings read alike, the source gives them in different places.

Assay: Tigecycline plasma PK and % F after PO enteric-coated capsule in dogs
Type: in vivo, Beagle dogs
Conditions: female, beagle, dog, plasma, po; for concentration at 2 hr / concentration at 3 hr / concentration at 4 hr / concentration at 5 hr / concentration at 6 hr / concentration at 8 hr / concentration at 10 hr / concentration at 24 hr: PO 30 mg unformulated enteric-coated capsule; for concentration at 0 min: Time (min) 0.0; for concentration at 0.3 min: Time (min) 0.3; for concentration at 24 min: Time (min) 24.0; for bioavailability: read-out: % F
Method: Adult beagle dogs weighing approximately 9 to 15 kg were used in the study. […] Room temperature was set to be maintained between approximately 20±5° C. Relative humidity was monitored but not controlled.
TEKLAD™ Certified Canine Diet was provided once daily in amounts (˜400 grams) appropriate for the size and age of the animals. Tap water was available ad libitum via automatic watering device or water bowls.
Oral dosing of enteric-coated capsules was accomplished by administering them to the back of the dog's mouth, followed by a chase of 5 mL water to ensure swallowing.
Water was provided ad libitum. […] Subsequently, each group of animals was dosed based on the protocol, i.e. either IV, or PO by capsule.
Minocycline (VWR international) was used as an internal standard. Sample processing/clean-up of plasma samples was carried out offline by protein precipitation with acidified acetonitrile using 0.5% trifluoroacetic acid (TFA).
The HPLC system consisted of Shimadzu SIL-HTc HPLC system equipped with dual Shimadzu LC-10ADvp isopumps, a Shimadzu CTO-10ASvp column temperature controller and a Shimadzu SPD-10Avp variable wavelength detector. […] Mobile phase A consisted of 23 mM phosphate buffer pH 2.5 with 4 mM 1-octanesulfonic acid, while mobile phase B consisting of 90% acetonitrile, 10% water, with 2 mM 1-octanesulfonic acid. […] The total runtime was 18 minutes per sample. The mobile phase flow rate was 1.2 mL/min. Detection was performed using the SPD-10Avp variable wavelength detector set at 350 nm, with a sensitivity of 0.001 aufs.
The samples were then centrifuged under refrigeration at 13 k rpm for 5 minutes. The supernatant was taken and the liquid removed to dryness under nitrogen in a turbovap. The dried extract was reconstituted in 60 μL of mobile phase A and the suspension was further centrifuged at 5 k rpm for 5 minutes to pellet any insoluble matter. The resulting supernatant was then injected onto the LC.
The unknown concentration in dog plasma samples was determined by interpolation of the peak area ratios of analyte:internal standard versus the ratio of their nominal concentrations into the regression line obtained from calibration standards spiked in pooled dog plasma. No regression weighting was used for the calculations. […] The calibration curve covered the range of 0.05 μg/mL to 5 μg/mL. […]
The capsules were enterically coated using a standard preclinical protocol to 10% weight gain. Two studies were conducted.

[1] = 30 mg, Tigecycline Plasma Concentration, SC430, individual dogs
[2] = 30 mg, Tigecycline Plasma Concentration, SC430, mean
[3] = 30 mg, Tigecycline Plasma Concentration, PO 30 mg enteric-coated capsule with 500 mg CA and 100 mg LLC, SC430, individual dogs
[4] = 30 mg, Tigecycline Plasma Concentration, PO 30 mg enteric-coated capsule with 500 mg CA and 100 mg LLC, SC430, mean

Compound: CN(C)c1cc(NC(=O)CNC(C)(C)C)c(O)c2c1C[C@H]1C[C@H]3[C@H](N(C)C)C(O)=C(C(N)=O)C(=O)[C@@]3(O)C(O)=C1C2=O [Tigecycline]
- concentration at 2 hr [1]: 0 ng/mL
- concentration at 2 hr [2]: 0 ng/mL
- concentration at 3 hr [1]: 0 ng/mL
- concentration at 3 hr [2]: 0 ng/mL
- concentration at 4 hr [1]: 0 ng/mL
- concentration at 4 hr [2]: 0 ng/mL
- concentration at 5 hr [1]: 0 ng/mL
- concentration at 5 hr [2]: 0 ng/mL
- concentration at 6 hr [1]: 0 ng/mL
- concentration at 6 hr [2]: 0 ng/mL
- concentration at 8 hr [1]: 0 ng/mL
- concentration at 8 hr [2]: 0 ng/mL
- concentration at 10 hr [1]: 0 ng/mL
- concentration at 10 hr [2]: 0 ng/mL
- concentration at 0 min [3]: 0 ng/mL
- concentration at 0 min [4]: 0 ng/mL
- concentration at 0.3 min [3]: 0 ng/mL
- concentration at 0.3 min [4]: 0 ng/mL
- concentration at 0.7 min (30 mg, Tigecycline Plasma Concentration, Time (min) 0.7, PO 30 mg enteric-coated capsule with 500 mg CA and 100 mg LLC, SC430, mean): 26.4 ng/mL
- concentration at 1 min (30 mg, Tigecycline Plasma Concentration, Time (min) 1.0, PO 30 mg enteric-coated capsule with 500 mg CA and 100 mg LLC, SC430, mean): 49 ng/mL
- concentration at […] (30 mg, Tigecycline Plasma Concentration, Time (min) 1.3, PO 30 mg enteric-coated capsule with 500 mg CA and 100 mg LLC, SC430, mean): 51.2 ng/mL
- concentration at […] (30 mg, Tigecycline Plasma Concentration, Time (min) 1.7, PO 30 mg enteric-coated capsule with 500 mg CA and 100 mg LLC, SC430, mean): 63.6 ng/mL
- concentration at 2 min (30 mg, Tigecycline Plasma Concentration, Time (min) 2.0, PO 30 mg enteric-coated capsule with 500 mg CA and 100 mg LLC, SC430, mean): 83.5 ng/mL
- concentration at […] (30 mg, Tigecycline Plasma Concentration, Time (min) 2.3, PO 30 mg enteric-coated capsule with 500 mg CA and 100 mg LLC, SC430, mean): 72.1 ng/mL
- concentration at […] (30 mg, Tigecycline Plasma Concentration, Time (min) 2.7, PO 30 mg enteric-coated capsule with 500 mg CA and 100 mg LLC, SC430, mean): 59.1 ng/mL
- concentration at 3 min (30 mg, Tigecycline Plasma Concentration, Time (min) 3.0, PO 30 mg enteric-coated capsule with 500 mg CA and 100 mg LLC, SC430, mean): 49.9 ng/mL
- concentration at […] (30 mg, Tigecycline Plasma Concentration, Time (min) 3.3, PO 30 mg enteric-coated capsule with 500 mg CA and 100 mg LLC, SC430, mean): 42.4 ng/mL
- concentration at […] (30 mg, Tigecycline Plasma Concentration, Time (min) 3.7, PO 30 mg enteric-coated capsule with 500 mg CA and 100 mg LLC, SC430, mean): 40.6 ng/mL
- concentration at 4 min (30 mg, Tigecycline Plasma Concentration, Time (min) 4.0, PO 30 mg enteric-coated capsule with 500 mg CA and 100 mg LLC, SC430, mean): 36.6 ng/mL
- concentration at […] (30 mg, Tigecycline Plasma Concentration, Time (min) 4.5, PO 30 mg enteric-coated capsule with 500 mg CA and 100 mg LLC, SC430, mean): 33.5 ng/mL
- concentration at 5 min (30 mg, Tigecycline Plasma Concentration, Time (min) 5.0, PO 30 mg enteric-coated capsule with 500 mg CA and 100 mg LLC, SC430, mean): 31.8 ng/mL
- concentration at […] (30 mg, Tigecycline Plasma Concentration, Time (min) 5.5, PO 30 mg enteric-coated capsule with 500 mg CA and 100 mg LLC, SC430, mean): 37.9 ng/mL
- concentration at 6 min (30 mg, Tigecycline Plasma Concentration, Time (min) 6.0, PO 30 mg enteric-coated capsule with 500 mg CA and 100 mg LLC, SC430, mean): 21.2 ng/mL
- concentration at 8 min (30 mg, Tigecycline Plasma Concentration, Time (min) 8.0, PO 30 mg enteric-coated capsule with 500 mg CA and 100 mg LLC, SC430, mean): 7.27 ng/mL
- concentration at 10 min (30 mg, Tigecycline Plasma Concentration, Time (min) 10.0, PO 30 mg enteric-coated capsule with 500 mg CA and 100 mg LLC, SC430, mean): 2.58 ng/mL
- concentration at 24 min [3]: 0 ng/mL
- concentration at 24 min [4]: 0 ng/mL
- concentration at 24 hr [1]: 0 ng/mL
- concentration at 24 hr [2]: 0 ng/mL
- Cmax (30 mg, target dose 30 mg, enterically coated capsule, excluding animal 5256, read-out: Observed Mean Cmax): 121 ng/mL
- AUC(0-t) (30 mg, target dose 30 mg, enterically coated capsule, time scale adjusted to 4 hours, excluding animal 5256, read-out: Observed AUC(0-t)): 214 ng·h/mL
- bioavailability (30 mg): 14.9%
- AUC(0-t) (30 mg, read-out: AUC(0-t)): 367 ng·h/mL
- Cmax (30 mg, read-out: Cmax): 121 ng/mL
- bioavailability (45 mg, 45 mg Formulated (500 mg CA, 100 mg LLC) enteric coated capsule, Study 2 (SC430), mean (% CV)): 15.5%
- AUC(0-t) (45 mg, 45 mg Formulated (500 mg CA, 100 mg LLC) enteric coated capsule, Study 2 (SC430), mean (% CV), read-out: AUC(0-t)): 574 ng·h/mL
- Cmax (45 mg, 45 mg Formulated (500 mg CA, 100 mg LLC) enteric coated capsule, Study 2 (SC430), mean (% CV), read-out: Cmax): 177 ng/mL
